Among the test systems are HOP-92; NCI-H23; ACHN; A549; SR; OVCAR-5; UACC-62; A498; CCRF-CEM; OVCAR-4; SK-MEL-5; RPMI-8226; OVCAR-3; NCI-H226; UACC-257; PC-3; MDA-MB-435; NCI/ADR-RES.
Holding throughout (assay): inhibition of tumour cell growth, NCI panel, 48 h

Molecules are shown by their SMILES.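 Assay format: 96-well plates, 48-hour exposure. GI50 marks 50% less growth.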 Activity calls are given as the source filed them. No stated cut-off is given here; in the data, active = GI50 up to about 1.1 µM and inactive = higher.

Consider `Oc1ccc2ccccc2c1/N=N/c1ccc(F)cc1`, for which the GI50 with HOP-92, in the assay on NCI-H23, with ACHN, in the assay with A549, in the assay with SR and with OVCAR-5 was > 100 µM (inactive) in each case. The GI50 with UACC-62, with A498, in the assay on CCRF-CEM, with OVCAR-4, in the assay with SK-MEL-5 and in the assay on RPMI-8226 was > 100 µM (inactive) throughout. Besides, the GI50 in the assay with OVCAR-3 is > 100 µM (inactive).
Regarding `N#CC1CC(c2ccccc2)Nc2cc(Cl)ccc2N1` (stereo not drawn), the GI50 in the assay with HOP-92 was 26.7 µM (inactive); with NCI-H226, > 100 µM (inactive); in the assay with NCI-H23, 31.6 µM (inactive); in the assay on ACHN it was 61.5 µM (inactive); in the assay on A549, 37.6 µM (inactive); in the assay on SR it was 14.3 µM (inactive). The GI50 in the assay on OVCAR-5 was > 100 µM (inactive); in the assay on UACC-62, 31.6 µM (inactive); in the assay on A498, > 100 µM (inactive); in the assay with CCRF-CEM it was 3.18 µM (inactive); in the assay on OVCAR-4, 40.5 µM (inactive); in the assay with SK-MEL-5, 41.2 µM (inactive). Moreover, the GI50 in the assay on RPMI-8226 is 6.31 µM (inactive); with OVCAR-3 it was 19.3 µM (inactive); in the assay on UACC-257, > 81.7 µM (inactive).
`C=CCC12CCC(=O)C=C1CCC1(C2)OCCO1` (stereo not drawn): the GI50 with NCI-H226, in the assay with ACHN, with A549, with SR, in the assay on UACC-62 and in the assay with A498 was > 100 µM (inactive) each time. For the same compound, the GI50 in the assay on CCRF-CEM was 53.1 µM (inactive); with OVCAR-4 it was > 100 µM (inactive); with SK-MEL-5, > 100 µM (inactive); in the assay with RPMI-8226 it was > 100 µM (inactive); with OVCAR-3, > 100 µM (inactive); with UACC-257 it was > 100 µM (inactive).
Regarding `COc1ccc(/N=N/c2c(O)ccc3ccccc23)cc1`, the GI50 was 19.6 µM (inactive) in the assay with HOP-92; 17.7 µM (inactive) in the assay with NCI-H226; 32.9 µM (inactive) in the assay with NCI-H23; 20.4 µM (inactive) in the assay on ACHN; 28.2 µM (inactive) with PC-3; 17.9 µM (inactive) with A549. The GI50 was > 100 µM (inactive) with MDA-MB-435; 14.8 µM (inactive) with SR; 17.5 µM (inactive) in the assay on OVCAR-5; 15.6 µM (inactive) in the assay on UACC-62; > 100 µM (inactive) with CCRF-CEM; 15.4 µM (inactive) in the assay with OVCAR-4. Also, the results for the GI50 in the assay with NCI/ADR-RES, in the assay with OVCAR-3 and in the assay on UACC-257 were 22.4 µM (inactive), 28.6 µM (inactive) and > 100 µM (inactive), respectively.
On to `CCOP(=O)(OCC)OC(C#N)c1ccc(-c2ccccc2)cc1` (stereo not drawn), for which the GI50 with HOP-92 was 14.4 µM (inactive); with NCI-H226, 31.6 µM (inactive); with NCI-H23, 27 µM (inactive); in the assay on ACHN it was 33 µM (inactive); with A549, 18.4 µM (inactive); in the assay on SR, 30 µM (inactive). For the same compound, the GI50 in the assay on OVCAR-5 is 54.1 µM (inactive); in the assay with UACC-62 it was 13.9 µM (inactive); with A498 it was 24.2 µM (inactive); in the assay on CCRF-CEM it was 22.4 µM (inactive); in the assay on OVCAR-4, 21.1 µM (inactive); with SK-MEL-5, 16 µM (inactive). Moreover, the GI50 in the assay on RPMI-8226 was 20.7 µM (inactive); in the assay with OVCAR-3 it was 19.1 µM (inactive); with UACC-257, 20.8 µM (inactive).
On to `Cc1ccc(-c2c(C#N)c(-c3ccccc3)c(C#N)c(=O)n2NS(=O)(=O)c2ccc(C)cc2)cc1`, for which the GI50 is 20.8 µM (inactive) with HOP-92; 83.9 µM (inactive) in the assay on NCI-H226; 33.3 µM (inactive) in the assay with ACHN; 35 µM (inactive) with PC-3; 34.4 µM (inactive) with A549; 48.9 µM (inactive) in the assay on MDA-MB-435. In addition, the GI50 in the assay with OVCAR-5 is > 100 µM (inactive); with UACC-62, 23.3 µM (inactive); in the assay with A498, 27.4 µM (inactive); in the assay with CCRF-CEM, 19.6 µM (inactive); in the assay with OVCAR-4 it was 45.7 µM (inactive); with SK-MEL-5, 12.6 µM (inactive). In addition, the GI50 is > 100 µM (inactive) with NCI/ADR-RES, 2.75 µM (inactive) with RPMI-8226 and 56.1 µM (inactive) in the assay with UACC-257.
With `COC(=O)C12CCC(CC1=O)C2(C)C` (stereo not drawn), the GI50 in the assay on HOP-92, with NCI-H226, in the assay with NCI-H23, in the assay with ACHN, in the assay with A549 and in the assay on SR was > 100 µM (inactive) in each case. In addition, the GI50 with UACC-62, in the assay with A498, with OVCAR-4, with SK-MEL-5, in the assay on RPMI-8226 and with OVCAR-3 was > 100 µM (inactive) each time. Besides, the GI50 in the assay with UACC-257 was > 100 µM (inactive).
On to `c1ccc(SC2(Sc3ccccc3)CCCC2)cc1`, for which the GI50 in the assay on HOP-92 is 71.1 µM (inactive); in the assay with NCI-H23, > 100 µM (inactive); with ACHN, > 100 µM (inactive); in the assay on A549, > 100 µM (inactive); in the assay with SR, > 100 µM (inactive); with UACC-62, > 100 µM (inactive). The GI50 in the assay with A498, in the assay on CCRF-CEM, in the assay on OVCAR-4, in the assay on SK-MEL-5, with RPMI-8226 and in the assay on OVCAR-3 was > 100 µM (inactive) throughout. Moreover, in the assay on UACC-257, the GI50 was > 100 µM (inactive).
On to `N#Cc1cc([N+](=O)[O-])ccc1NC(=O)C(=O)C(C(=O)/C=C/c1ccccc1)C1OC(=O)c2ccccc21` (stereo not drawn), for which the GI50 with HOP-92 was > 100 µM (inactive); in the assay on NCI-H226 it was > 100 µM (inactive); in the assay with NCI-H23, > 100 µM (inactive); in the assay with ACHN, > 100 µM (inactive); in the assay with A549 it was > 100 µM (inactive); in the assay with SR it was 1.69 µM (inactive). Also, the GI50 in the assay with OVCAR-5 is > 100 µM (inactive); in the assay with UACC-62, > 100 µM (inactive); in the assay on A498, > 100 µM (inactive); in the assay with CCRF-CEM, 8.65 µM (inactive); with OVCAR-4, > 100 µM (inactive); with SK-MEL-5, > 100 µM (inactive). Also, the GI50 in the assay on OVCAR-3 and with UACC-257 was > 100 µM (inactive) in each case.
Take `C/C(=N/NC(=O)C[N+](C)(C)C)C(CN(C)C)C(=O)Nc1ccccc1` (stereo not drawn): the GI50 in the assay on NCI-H226, with NCI-H23, in the assay on ACHN, with A549, in the assay on SR and in the assay on OVCAR-5 was > 100 µM (inactive) throughout. The GI50 in the assay on UACC-62, in the assay with A498, in the assay on CCRF-CEM, in the assay on OVCAR-4, with SK-MEL-5 and with OVCAR-3 was > 100 µM (inactive) in each case. The GI50 with UACC-257 was > 100 µM (inactive).
On to `COCCN1C2=CCCCC2=Nc2c1nc(N)[nH]c2=O`, for which the GI50 in the assay with HOP-92, in the assay with NCI-H226, in the assay with NCI-H23, in the assay with ACHN, with A549 and with SR was > 100 µM (inactive) throughout. Besides, the GI50 in the assay with OVCAR-5, in the assay on UACC-62, in the assay on A498, in the assay on CCRF-CEM, in the assay on SK-MEL-5 and with RPMI-8226 was > 100 µM (inactive) in each case. Besides, the GI50 with OVCAR-3 and in the assay with UACC-257 was > 100 µM (inactive) each time.
In the case of `CC1(C)COC(c2cccnc2/C=N/O)=N1`, the GI50 in the assay on HOP-92, with NCI-H226, in the assay with NCI-H23, in the assay with ACHN, with A549 and in the assay on SR was > 100 µM (inactive) each time. Besides, the GI50 in the assay with OVCAR-5, in the assay on UACC-62, in the assay with A498, with CCRF-CEM, with OVCAR-4 and with SK-MEL-5 was > 100 µM (inactive) each time. Also, the GI50 with OVCAR-3 and in the assay on UACC-257 was > 100 µM (inactive) in each case.
Regarding `O=C(O)[C@@H]1OCCOCCO[C@@H](C(=O)O)[C@H](C(=O)O)OCCOCCO[C@H]1C(=O)O`, the GI50 with HOP-92 was > 100 µM (inactive); in the assay with NCI-H226, > 100 µM (inactive); in the assay on NCI-H23 it was > 100 µM (inactive); with ACHN it was > 61.8 µM (inactive); in the assay on A549, > 100 µM (inactive); in the assay on SR it was 19.1 µM (inactive). The GI50 in the assay on OVCAR-5 is > 100 µM (inactive); in the assay with UACC-62, > 100 µM (inactive); in the assay on A498 it was > 100 µM (inactive); with CCRF-CEM it was > 51.2 µM (inactive); in the assay with OVCAR-4 it was > 100 µM (inactive); with SK-MEL-5 it was > 100 µM (inactive). The values for the GI50 in the assay with RPMI-8226, with OVCAR-3 and in the assay on UACC-257 were > 38.4 µM (inactive), > 100 µM (inactive) and > 100 µM (inactive), respectively.
Regarding `CCC(C)(C)C(=O)O[C@H]1C[C@@H](C)C=C2C=C[C@H](C)[C@H](CC[C@@H]3C[C@@H](O)CC(=O)O3)[C@H]21` [SIMVASTATIN], the GI50 with HOP-92 is < 0.003 µM (active); with NCI-H23 it was 0.982 µM (active); in the assay on ACHN, 0.447 µM (active); in the assay with A549, 5.79 µM (inactive); in the assay with SR, 13.2 µM (inactive); in the assay with UACC-62 it was 0.469 µM (active). Moreover, the GI50 was 0.902 µM (active) with A498; 11.3 µM (inactive) in the assay on CCRF-CEM; > 30 µM (inactive) with OVCAR-4; 8.2 µM (inactive) in the assay with RPMI-8226; 23.1 µM (inactive) with OVCAR-3; 17.3 µM (inactive) with UACC-257.

The record behind these values is ChEMBL document CHEMBL1201862, “PubChem BioAssay data set” (2004).
